Source: US20110082133A1, “PYRIDONE COMPOUNDS” (priority 2008, published 2011)

Legend:
rat EP4 receptor = rat EP4 receptor (Rattus norvegicus, UniProt P43114); assay: Evaluation test on EP4 receptor affinity in rat ([3H]PGE2 receptor binding test, membrane fraction); set-up: expressed in transfected cells; host or cells: HEK293 cells, transient transfection (Lipofectamine 2000); membrane fraction used; conditions: [3H]PGE2 0.3 nM, membrane fraction of rat EP4 expressing HEK293 cells
Experimental: A rat EP4 receptor cDNA was subcloned into an expression vector (pcDNA3.1-V5-His-topo, manufactured by Invitrogen Corporation) to prepare a rat EP4 expression vector. HEK293 cells were cultured in a collagen type I-treated 15 cm dish (manufactured by Asahi Techno Glass Co. Ltd.) to a confluence of 70%. An Opti-MEM culture medium at 1.2 mL/dish and a transfection reagent (Lipofectamine 2000, manufactured by Invitrogen Corporation) at 60 μL/dish were mixed, followed by being left to stand at room temperature for 5 minutes. Then, the rat EP4 receptor expression vector at 15 μg/dish was added thereto, followed by being left to stand at room temperature for 30 minutes. The liquid mixture of the transfection reagent was added into the dish, followed by culturing for 20 to 24 hours. The cell culture was carried out in a CO2 incubator (37° C., 5% CO2).
The culture medium was removed by suction, 10 mL of cooled PBS was added thereto per 15 cm dish, and the cells were scraped using a cell scraper. After washed with cooled PBS (1,200 rpm, 4° C., 5 minutes), suspended in 6 mL/dish of cooled 20 mM Tris-HCl (pH 7.4; manufactured by Nacalai Tesque Inc., 5 mM EDTA included) and homogenized using a Polytron, the homogenate was centrifuged (26,000 rpm, 20 minutes, 4° C.). The obtained precipitate was resuspended in cooled 20 mM Tris-HCl and homogenized again using a Polytron, and the homogenate was centrifuged (26,000 rpm, 20 minutes, 4° C.). The obtained precipitate was resuspended in 50 mM HEPES (pH 7.5; manufactured by Dojindo Laboratories) at 1 mL per dish, homogenized using a Polytron, and freeze-stored at −80° C. as a membrane fraction. At this time, a part thereof was used for the measurement of the protein concentration. Measurement of the protein concentration was carried out using a Protein assay stain (manufactured by Bio-Rad Laboratories) in accordance with a standard Protocol as appended in duplicate.
[^3H]PGE2 50 μL (final concentration 0.3 nM; manufactured by Perkin Elmer Co., Ltd.), 100 μL (20 μg/well) of the membrane fraction prepared from the rat EP4 expression cell, and 50 μL of a test compound were mixed in a 96-well microplate (manufactured by Sumitomo Bakelite Co., Ltd.), incubated at room temperature for 1 hour, then filtered by suction on a microplate (UniFilter-96 GF/B, manufactured by Perkin Elmer Co., Ltd.) using a cell harvester (FilterMate Harvester, manufactured by Perkin Elmer Co., Ltd.), and washed three times with 300 μL/well of a cooled assay buffer (50 mM HEPES, 10 mM MgCl2). Dilution of [^3H]PGE2 and the membrane fraction was carried out using the assay buffer, and dilution of the test compound and the unlabeled PGE2 was carried out using dimethyl sulfoxide and the assay buffer. The UniFilter-96 GF/B was treated by preliminarily washing twice with 200 μL/well of the cooled assay buffer. The UniFilter-96 GF/B after filtration was dried in a dryer overnight, 50 μL/well of a liquid scintillation cocktail (MicroScint20, manufactured by Perkin Elmer Co., Ltd.) was added thereto, and the radioactivity was then measured using a liquid scintillation counter for a microplate (TopCount, manufactured by Perkin Elmer Co., Ltd.). For measurement of the non-specific binding, an unlabeled PGE2 (final concentration 1 μM; manufactured by Cayman Chemical Company) was added. All of the measurements were carried out in duplicate, and the specific binding amount was determined by subtracting the non-specific binding amount from the total binding amount.
According to the test method as described above, the rat EP4 receptor affinity (Ki) of the compound of the formula (I) was measured. […] In this connection, Ex means Example Compound number.

[1] = test system: LPS-induced TNF-α production in THP-1 cells; assay: Inhibitory action on LPS-induced TNF-α production in THP-1 cells; assay type: cell-based; conditions: Homo sapiens, 3 hours after LPS, ELISA
Experimental: Human monocytic cell line THP-1 cells were suspended in an assay medium (PRMI-1640 containing 10% fetal bovine serum, 100 unit/mL penicillin G sodium, and 100 μg/mL streptomycin sulfate), and seeded onto a 96-well plate at 1×10^5 cells/well. 50 μL/well of an assay medium containing a test compound was added thereto, followed by incubation at 37° C. for 30 minutes. Further, 50 μL/well of an assay medium containing 1 to 5 μg/mL of LPS was added thereto, and the TNF-α concentration in the assay medium of each well after 3 hours was measured. The measurement was carried out by means of a standard ELISA method. A 96-well plate which had been coated overnight with an anti-human TNF monoclonal antibody (clone: MAb1) (manufactured by Becton, Dickinson and Company) as a capture antibody was washed with a wash buffer (PBS containing 0.05% Tween-20), and PBS containing 10% fetal bovine serum was incubated at room temperature for 1 hour to perform blocking. After washing with a wash buffer, 100 μL/well of the assay medium to be measured was incubated at 4° C. overnight. As the standard material to be measured, a recombinant human TNF (manufactured by Becton, Dickinson and Company) was used. After washing with a wash buffer, 100 μL of a biotinylated anti-human TNF monoclonal antibody (clone: MAb11) as a detection antibody was treated at room temperature for 1 hour. After washing with a wash buffer, it was treated with 100 μL/well of an HRP-labeled Streptavidin (manufactured by Zymed Laboratories, Inc.) at room temperature for 30 minutes, and washed again. Treatment was conducted using 100 μL/well of a TMB (3,3′,5,5′-tetramethylbenzidine) substrate liquid at room temperature for 20 minutes in a dark room. A 2 M sulfuric acid was added thereto at 50 μL/well to stop the reaction, and an absorbance at 450 nm/570 nm was measured by means of a plate reader SPECRA max (manufactured by Molecular Devices Inc.).

TNF-α production = assay: In vivo TNF-α production inhibiting action in rat (LPS-induced plasma TNF-α); set-up: species or system SD male rats; conditions: oral administration 1 hour before LPS (10 μg/kg i.v.), plasma TNF-α 90 minutes after LPS
Experimental: LPS (10 μg/kg) was administered to caudal veins of SD male rats, and after 90 minutes from the administration, the heparin blood was collected from the abdominal vena cava to prepare a plasma. The test compound was orally administered 1 hour before the administration of LPS. The amount of TNF-α in the plasma was measured using a BD OptEIA rat TNF ELISA set (manufactured by Becton, Dickinson and Company) according to the attached method. The inhibitory rate by the test compound was determined from the amount of TNF-α in plasma in a control group (administered with a solvent).

rat EP4 receptor, sequence (P43114 whole entry): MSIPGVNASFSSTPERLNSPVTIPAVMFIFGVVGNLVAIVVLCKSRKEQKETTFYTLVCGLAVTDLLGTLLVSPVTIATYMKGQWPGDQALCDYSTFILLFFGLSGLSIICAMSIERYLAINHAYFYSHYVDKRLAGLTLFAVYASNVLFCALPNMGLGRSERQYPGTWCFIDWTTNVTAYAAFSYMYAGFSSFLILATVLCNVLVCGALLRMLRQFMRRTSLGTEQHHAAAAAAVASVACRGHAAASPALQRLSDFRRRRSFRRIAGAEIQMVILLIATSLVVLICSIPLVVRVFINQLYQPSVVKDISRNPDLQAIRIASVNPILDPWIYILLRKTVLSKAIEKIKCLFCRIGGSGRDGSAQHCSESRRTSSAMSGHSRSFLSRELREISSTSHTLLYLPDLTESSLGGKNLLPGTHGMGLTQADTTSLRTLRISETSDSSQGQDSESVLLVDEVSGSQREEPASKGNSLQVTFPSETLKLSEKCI

SMILES | Ki (rat EP4 receptor) [nM] | IC50 [1] [nM] | ED50 (TNF-α production) [mg/kg]
CC(C)C[C@H]1CCCN1Cc1c(Cl)cc(Cl)c(=O)n1CCc1ccc(C(=O)O)cc1 [Ex 18] | 4.4 | – | –
CN(Cc1c(Cl)cc(Cl)c(=O)n1CCc1ccc(C(=O)O)cc1)c1cccc(OC(F)(F)F)c1 [Ex 19] | 5.4 | – | –
CN(Cc1c(Cl)cc(Cl)c(=O)n1CCc1ccc(C(=O)O)cc1)C1CCCC1 [Ex 26] | – | 12 | –
Cc1cc(C2CC2)c(CN2CCC[C@@H]2CC(C)C)n(CCc2ccc(C(=O)O)cc2)c1=O [Ex 27] | 25 | 12 | –
CCC[C@H]1CCCN1Cc1c(Cl)cc(Cl)c(=O)n1CCc1ccc(-c2nnn[nH]2)cc1 [Ex 42] | 0.52 | 15 | 0.076
CC(C)c1cccc(N(C)Cc2c(Cl)cc(Cl)c(=O)n2CCc2ccc(C(=O)O)cc2)c1 [Example 5, 4-{2-[3,5-dichloro-6-{[(3-isopropylphenyl)(methyl)amino]methyl}-2-oxopyridin-1(2H)-yl]ethyl}benzoic acid] | 4.7 | – | –
Cc1cccc(N(C)Cc2c(Cl)cc(Cl)c(=O)n2CCc2ccc(C(=O)O)cc2)c1 [Example 6, 4-{2-[3,5-dichloro-6-{[methyl(3-methylphenyl)amino]methyl}-2-oxopyridin-1(2H)-yl]ethyl}benzoic acid] | 11 | – | –
CCc1cccc2c1N(Cc1c(Cl)cc(Cl)c(=O)n1CCc1ccc(C(=O)O)cc1)CC2 [Example 13] | 24 | 7.4 | –
CCc1ccc2c(c1)N(Cc1c(Cl)cc(Cl)c(=O)n1CCc1ccc(C(=O)O)cc1)CC2 [Example 15, 4-(2-{3,5-dichloro-6-[(6-ethyl-2,3-dihydro-1H-indol-1-yl)methyl]-2-oxopyridin-1(2H)-yl}ethyl)benzoic acid] | 3.6 | – | –
O=C(O)c1ccc(CCn2c(CN3CCc4ccccc43)c(Cl)cc(Cl)c2=O)cc1 [Example 16, 4-{2-[3,5-dichloro-6-(2,3-dihydro-1H-indol-1-ylmethyl)-2-oxopyridin-1(2H)-yl]ethyl}benzoic acid] | 13 | – | –
CC(C)c1cccc(NCc2c(Cl)cc(Cl)c(=O)n2CCc2ccc(C(=O)O)cc2)c1 [Example 91] | 9.8 | – | –
CCc1cccc(NCc2c(Cl)cc(Cl)c(=O)n2CCc2ccc(C(=O)O)cc2)c1 [Example 97] | 11 | – | –
O=C(O)c1ccc(CCn2c(CNc3cccc(C(F)(F)F)c3)c(Cl)cc(Cl)c2=O)cc1 [Example 99] | 25 | – | –
CN(Cc1c(Cl)cc(Cl)c(=O)n1CCc1ccc(C(=O)O)cc1)c1cccc(F)c1 [Example 122] | 16 | – | –
CCN(Cc1c(Cl)cc(Cl)c(=O)n1CCc1ccc(C(=O)O)cc1)c1cccc(C(C)C)c1 [Example 123] | 21 | – | –
COc1cccc(N(C)Cc2c(Cl)cc(Cl)c(=O)n2CCc2ccc(C(=O)O)cc2)c1 [Example 124] | 6.2 | – | –
COc1cc(OC)cc(N(C)Cc2c(Cl)cc(Cl)c(=O)n2CCc2ccc(C(=O)O)cc2)c1 [Example 125] | 29 | – | –
COc1ccc2c(c1)N(Cc1c(Cl)cc(Cl)c(=O)n1CCc1ccc(C(=O)O)cc1)CC2 [Example 130] | 4.1 | – | –
Cc1ccc2c(c1)N(Cc1c(Cl)cc(Cl)c(=O)n1CCc1ccc(C(=O)O)cc1)CC2 [Example 138] | 7.7 | – | –
Cc1cccc2c1N(Cc1c(Cl)cc(Cl)c(=O)n1CCc1ccc(C(=O)O)cc1)CC2 [Example 139] | 12 | – | –
CC(C)c1ccc2c(c1)N(Cc1c(Cl)cc(Cl)c(=O)n1CCc1ccc(C(=O)O)cc1)CC2 [Example 143] | 11 | – | –
Cc1ccc2c(c1)CCCN2Cc1c(Cl)cc(Cl)c(=O)n1CCc1ccc(C(=O)O)cc1 [Example 145] | 19 | – | –
COc1cccc2c1N(Cc1c(Cl)cc(Cl)c(=O)n1CCc1ccc(C(=O)O)cc1)CC2 [Example 146] | 39 | – | –
Cc1c(F)ccc2c1N(Cc1c(Cl)cc(Cl)c(=O)n1CCc1ccc(C(=O)O)cc1)CC2 [Example 149] | 9.5 | 2.8 | –
O=C(O)c1ccc(CCn2c(CN3CCc4ccc(Cl)cc43)c(Cl)cc(Cl)c2=O)cc1 [Example 150] | 15 | – | –
O=C(O)c1ccc(CCn2c(CN3CCc4ccc(OC(F)(F)F)cc43)c(Cl)cc(Cl)c2=O)cc1 [Example 152] | 5.1 | – | –
O=C(O)c1ccc(CCn2c(CN3CCc4ccc(C(F)(F)F)cc43)c(Cl)cc(Cl)c2=O)cc1 [Example 153] | 4.9 | – | –
CCCC[C@H]1CCCN1Cc1c(Cl)cc(Cl)c(=O)n1CCc1ccc(C(=O)O)cc1 [Example 158] | 8.6 | – | –
Cc1cc(C)c(=O)n(CCc2ccc(-c3n[nH]c(=O)o3)cc2)c1CN1CCC[C@@H]1CC(C)C [Example 345] | 2.2 | 13 | 1.9
Cc1cc(C2CC2)c(CN2CCC[C@@H]2CC(C)C)n(CCc2ccc(-c3n[nH]c(=O)o3)cc2)c1=O [Example 346] | 2.8 | – | 2
